Reference: US20190133998A1, “TREATMENT OF TUMORS WITH INHIBITORS OF CXCL12 SIGNALING AND SUBT[…] OF CHEMOTHERAPEUTIC AGENTS” (THE GENERAL HOSPITAL CORPORATION, priority 2016, published 2019)
Where two headings read alike, the source gives them in different places.

How the values were obtained:
ID8 cells [1] = tested on: ID8 cells
Procedure: (§1) Sequential Delivery of Small Molecules and Chemotherapy: ID8 cells were exposed to AMD3100 in a 6 well plate (2.5×10^5 cells/well) for 72 hr. Cells were then washed and counted. Cell viability was checked by propidium iodide. For each condition, 500 cells per well of viable ID8 cells were then seeded into a 96 well black assay plate. ID8 cells were then incubated in DMEM containing a carrier, AMD3100 10 μM, TAXOL 0.005 μM, or both for another 72 hr. For TOV-112D cells, initial 72 hr incubation was with AMD3100 5 μM, followed by 96 hr incubation in media containing AMD3100 5 μM, TAXOL 1 nM, or both. At the conclusion of the experiment, plates were washed and dsDNA was measured via CyQuant assay.

TOV-112D cells [2] = tested on: TOV-112D cells
Procedure: as §1

ID8 cells [3] = test: Soft-agar colony formation, ID8; type: cell-based, murine
Procedure: (§2) ID8 and TOV Colony Formation in The Presence of Small Molecules and/or Chemotherapy: Bottom Layer Hard Agar: 2×DMEM and 0.8% agar stock was prepared and adjusted to 42° C. in a water bath for 30 min. The agar and 2×DMEM were mixed (1:2). 500 μL of the mixture was then added to each well of a 24 well plate, and the plate was rocked to distribute evenly and allowed to solidify at room temperature in a tissue culture hood. Upper Layer Soft Agar: 0.6% agar stock was prepared adjusted to 42° C. in a water bath for 30 min. During this time, ID8 cells were trypsinized, and 40,000 cells per mL suspension in 1×DMEM was made. Cell suspensions were then mixed with soft agar stock (1:2) and 500 μL of the mixture was then added to each well. Each condition was in triplicate.
Drug-DMEM stocks were made to achieve the proper concentrations in 1.1 mL, the total volume of each well: AMD3100 (10 μM and 1 μM for ID8 cells, 5 μM and 2.5 μM for TOV cells) and TAXOL (0.015 μM and 0.005 μM). 100 μL of each drug was added to the relative wells in triplicate. Plates were then incubated in a humidified incubator with […] for 20-30 days. At the end of the experiment, each well was stained with 0.005% crystal violet in 15% ethanol (140 μL per well) and plates were incubated again for several hours then photos were taken using a microscope. ID8 Colonies equal or bigger […] and TOV colonies equal or bigger than […] were counted using Image J software.

TOV-112D cells [4] = test: Soft-agar colony formation, TOV-112D; type: cell-based, human; settings: TOV-112D, AMD3100 2.5 μM
Procedure: as §2
[…] 100 μL of each drug was added to the relative wells in triplicate. Plates were then incubated in a humidified incubator with […] for 20-30 days. At the end of the experiment, each well was stained with 0.005% crystal violet in 15% ethanol (140 μL per well) and plates were incubated again for several hours then photos were taken using a microscope. ID8 Colonies equal or bigger […] and TOV colonies equal or bigger than […] were counted using Image J software.

Substance: Plerixafor octahydrochioride [AMD3100]
- proliferated more than untreated cells (ID8 cells [1]; ID8, no pre-treatment, re-plated in AMD3100 10 μM media 72 hr, not significant): 22%
- proliferation reduced by, vs untreated control cells (ID8 cells [1]; ID8, pre-treated with AMD3100 72 hr, reseeded in AMD3100 10 μM 72 hr): 48%
- increased growth (ID8 cells [1]; ID8, treated with AMD3100 and then incubated without drug): 22%
- sensitization of cells to subsequent TAXOL by AMD3100 pre-treatment (ID8 cells [1]; ID8, vs untreated control cells then incubated with TAXOL): did not significantly sensitize
- sensitization of cells by AMD3100 pre-treatment (TOV-112D cells [2]): did not significantly sensitize
- proliferation reduced by (TOV-112D cells [2]; AMD3100 5 μM 72 hr, then re-plated in AMD3100 96 hrs): 79.5%
- proliferation reduced by (TOV-112D cells [2]; AMD3100 5 μM 72 hr, then re-plated in control media 96 hrs): 49%
- proliferation reduced by (TOV-112D cells [2]; control media, then AMD3100 5 μM 96 hr): 51%
- sensitization of cells by AMD3100 pre-treatment (TOV-112D cells [2]; listed as AMD-3100): significantly sensitized
- decreased colony formation by (ID8 cells [3]; ID8, AMD3100 1 M (so in the source)): 16%
- decreased colony formation by (ID8 cells [3]; ID8, AMD3100 10 M (so in the source)): 44%
- colony formation (TOV-112D cells [4]): did not reduce colony formation
